Measurements taken from patent publication US20250313546A1, “NUCLEIC ACID BINDERS” (UNIVERSITY OF STRATHCLYDE, priority 2022, published 2025).
Values after ≈ are worked out from the molar mass of the structure shown.

Experiments:
[1] = test system: Staphylococcus aureus (ATCC 43300); assay: Antibacterial MIC, broth microdilution (CLSI); assay type: cell-based; details: for S. aureus Selectivity Indices, Group: Alkyl Amidines and NH Pyrroles; for MIC80: Staphylococcus aureus, ATCC43300, read-out: MIC80 S. aureus
[2] = test system: Rhizopus arrhizus (NEQAS12.35321); details: read-out: MIC99 Rhizopus arrhizus
[3] = test system: T. evansi AntTat 3/3; assay: Resazurin-based (Alamar blue) drug sensitivity assay; details: read-out: IC50 T. evansi
Method: (§2) A detailed description of the procedure for evaluating activity against trypanosomes, using an Alamar Blue (resazurin) assay, is described below.
(§3) The bloodstream form (BSF) T. b. brucei s427 (see De Koning, H. P. et al., Mol. Biochem. Parasitol. 2000, 106, 181-185), T. evansi AntTat 3/3 (see Dean, S. et al., Proc. Natl. Acad. Sci. USA, 2013, 110, 14741-14746), and T. equiperdum (see Stewart, M. L. et al., Eukaryot. Cell, 2010, 9, 336-343) were cultured in HMI-9 medium (Life Technologies, Paisley, United Kingdom) supplemented with 10% heat inactivated Foetal Bovine Serum (FBS (PAA Laboratories Linz, Austria)), 14 μL/L β-mercaptoethanol (BDH, Dorset, UK), and 3.0 g/L NaHCO3 (Sigma-Aldrich) and adjusted to pH 7.4. These cell lines were maintained at 37° C. in a humidified, 5% CO2 environment.
(§4) A resazurin-based (Alamar blue) drug sensitivity assay was used to assess and compare the activity of standard trypanocides in the different cell lines investigated (see Gould, M. K. et al., Anal. Biochem., 2008, 382, 87-93). Briefly, 23 doubling dilutions of the test compound of the invention, starting at 100 μM, and a compound-free control were prepared in 100 μL medium in a 96-well white plate (Greiner Bio-one, Frickenhausen, Germany). The cells were adjusted to 2×10^4 cells/mL for T. b. brucei and T. equiperdum; 4×10^4 cells/mL for T. evansi; and 5×10^5 cells/mL for T. congolense in the appropriate medium. 100 μL of the adjusted cells was then added to the wells containing drug dilutions and incubated for 48 h under respective culture condition. Thereafter, 20 μL of 125 mg/mL resazurin sodium dye was added, and the plate was incubated for a further 24 h.

[4] = test system: Escherichia coli (ATCC 25922); assay: Antibacterial MIC, broth microdilution (CLSI); assay type: cell-based; details: Escherichia coli, ATCC25922; read-out: MIC80 E. coli
[5] = test system: Candida auris (H.17.157); details: for MIC99: Candidozyma auris, read-out: MIC99 Candida auris; for C. auris Selectivity Indices, Group: SI, IC50 (μM)/MIC99 (μg/mL), HEK293 cytotoxicity, Alkyl Amidines and NH Pyrroles
Method: (§5) The Minimum Inhibitory Concentration (MIC, at 99% inhibition) of the compounds was determined using the broth microdilution method as recommended by EUCAST (EUCAST Definitive Document E.DEF 9.3.2, Method for the determination of broth dilution minimum inhibitory concentrations of antifungal agents for conidia forming moulds and EUCAST Definitive Document E.DEF 7.3.2 Method for the determination of broth dilution minimum inhibitory concentrations of antifungal agents for yeasts).

[6] = test system: C. neoformans (F10025); details: Cryptococcus neoformans, read-out: MIC99 C. neoformans
[7] = test system: human respiratory syncytial virus (RSV A2); assay: Viral ToxGlo assay, Hep-2 cells; assay type: cell-based; details: 72 h
[8] = test system: Genomic double stranded DNA (salmon); assay: Fluorescence intercalator displacement (FID) assay, SYBR-safe probe; details: 20 μM compound, 30° C., lower % = stronger binding
Method in brief: (§1)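 Compound at 20 μM mixed with 3.76 ng/mL polyAU dsRNA or salmon genomic dsDNA and 12500-fold diluted SybrSafe in 1 mM phosphate buffer pH 7.4, then heated to 30 °C and fluorescence read. Reduction is expressed as normalised %, with nucleic acid plus probe as maximum and probe alone as minimum.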

[9] = test system: PolyAU double stranded RNA; assay: as above; details: 20 μM compound, 30° C., lower % = stronger binding
Method in brief: as §1

[10] = test system: A. fumigatus A1160 (MFIG001); details: Aspergillus fumigatus, read-out: MIC99 A. fumigatus A1160
Method: as §5

[11] = test system: Enterococcus faecalis (ATCC 51299); assay: Antibacterial MIC, broth microdilution (CLSI); assay type: cell-based; details: for MIC80: Enterococcus faecalis, ATCC51299, read-out: MIC80 E. faecalis; for E. faecalis Selectivity Indices, Group / E. faecalis Selectivity Index (SI): SI, IC50 (μM)/MIC80 (μM), HEK293 cytotoxicity; for E. faecalis Selectivity Indices, Group: Alkyl Amidines and NH Pyrroles; for E. faecalis Selectivity Index (SI): numeric value
[12] = test system: Human rhinovirus (HRV-14); assay: Viral ToxGlo assay, Hela Ohio cells; assay type: cell-based; details: M-HeLa, 72 h
[13] = test system: T. equiperdum; assay: Resazurin-based (Alamar blue) drug sensitivity assay; details: Trypanosoma equiperdum, read-out: IC50 T. equiperdum
Method: as §2, §3, §4

[14] = test system: Candida glabrata (ACPF3309); details: for MIC99: Nakaseomyces glabratus, read-out: MIC99 Candida glabrata; for C. glabrata Selectivity Indices, Group: Alkyl Amidines and NH Pyrroles
[15] = test system: Influenza (H1N1); assay: Accelerated Viral Neuraminidase Inhibition Assay (AVINA), A549 cells; assay type: cell-based; details: Influenza A virus, 72 h
[16] = test system: T. vaginalis; assay: Trichomonas resorufin assay; assay type: cell-based; details: for T. vaginalis Selectivity Indices, Group / T. vaginalis Selectivity Index (SI): SI, IC50 (μM)/IC50 (μM), HEK293 cytotoxicity; for IC50: Trichomonas vaginalis, read-out: IC50 T. vaginalis; for T. vaginalis Selectivity Index (SI): numeric value
[17] = test system: SARS-CoV-2 (hCoV-19/Australia/VIC01/2020); assay: SARS-CoV-2 microplaque inhibition assay in Vero-E6 cells; assay type: cell-based; details: Severe acute respiratory syndrome coronavirus 2, Vero C1008; plaque inhibition, Vero-E6 cells; read-out: IC50 SARS-CoV-2
[18] = test system: C. albicans (ATCC 90028); details: Candida albicans, ATCC90028, read-out: MIC99 C. albicans
Method: as §5

[19] = test system: Scedosporium prolificans (F2746); details: Lomentospora prolificans, read-out: MIC99 Scedosporium prolificans
Method: as §5

[20] = SI, IC50 (μM)/MIC80 (μM), HEK293 cytotoxicity
[21] = SI, IC50 (μM)/MIC99 (μg/mL), HEK293 cytotoxicity

Structure (SMILES) | S. aureus Selectivity Indices, Group [1, 20] | MIC80 [1] [µM] | MIC99 [2] [µg/mL] | IC50 [3] [nM] | MIC80 [4] [µM] | MIC99 [5] [µg/mL] | MIC99 [6] [µg/mL] | inhibition at 20 µM [7] [%] | % Normalised Fluorescence with gDNA [8] [%] | % Normalised Fluorescence with polyAU RNA [9] [%] | MIC99 [10] [µg/mL] | MIC80 [11] [µM] | inhibition at 20 µM [12] [%] | IC50 [13] [nM] | MIC99 [14] [µg/mL] | inhibition at 20 µM [15] [%] | E. faecalis Selectivity Indices, Group [11] | E. faecalis Selectivity Index (SI) [11] | IC50 [16] [nM] | IC50 [17] [nM] | other results
Cn1cc(NC(=O)c2ccc(/C=C/c3ccc4nonc4c3)cc2)cc1C(=O)Nc1c[nH]c(C(=O)NCCC(=N)N)c1 [IIIa3, (E)-N-(5-((3-amino-3-iminopropyl)carbamoyl)-1H-pyrrol-3-yl)-4-(4-(2-(benzo[c][1,2,5]oxadiazol-5-yl)vinyl)benzamido)-1-methyl-1H-pyrrole-2-carboxamide] | B (Group B: 3 < SI <= 5) | 5 to 25 (≈ 2.83 to 14.1 µg/mL) | > 50 | 10 to 100 | > 100 | > 50 | < 5 | > 50 | 27 | 3 | 5 to 25 (≈ 8.84 to 44.2 µM) | 5 to 25 (≈ 2.83 to 14.1 µg/mL) | 25 to 50 | 10 to 100 | < 5 | > 50 | – | – | – | – | C. glabrata Selectivity Indices, Group [14, 21]: B (Group B: 12 < SI <= 20)
N=C(N)CCNC(=O)c1cc(NC(=O)c2cc(NC(=O)c3ccc(/C=C/c4cnc5ccccc5c4)cc3)c[nH]2)c[nH]1 [IIIa6, (E)-N-(3-amino-3-iminopropyl)-4-(4-(4-(2-(quinolin-3-yl)vinyl)benzamido)-1H-pyrrole-2-carboxamido)-1H-pyrrole-2-carboxamide] | D (D: SI > 10) | < 5 | 25 to 50 (≈ 44.6 to 89.2 µM) | 10 to 100 | 25 to 100 (≈ 14 to 56.1 µg/mL) | 5 to 25 (≈ 8.92 to 44.6 µM) | < 5 | > 50 | 18 | 29 | 5 to 25 (≈ 8.92 to 44.6 µM) | < 5 | > 50 | < 10 | < 5 | > 50 | D (D: SI > 10) | 14 | – | – | S. aureus Selectivity Index (SI) ([1]; SI, IC50 (μM)/MIC80 (μM), HEK293 cytotoxicity, numeric value): 14; C. auris Selectivity Indices, Group [5]: D (Group D SI > 3); C. glabrata Selectivity Indices, Group [14, 21]: D (Group D: SI > 50); C. glabrata Selectivity Index (SI) ([14]; SI, IC50 (μM)/MIC99 (μg/mL), HEK293 cytotoxicity, numeric value): 109
COCCOCCOCCNC(=O)c1cc(NC(=O)c2cc(NC(=O)c3ccc(/C=C/c4cnc5ccccc5c4)cc3)cn2C)cn1C [IVa8, (E)-N-(2-(2-(2-methoxyethoxy)ethoxy)ethyl)-1-methyl-4-(1-methyl-4-(4-(2-(quinolin-3-yl)vinyl)benzamido)-1H-pyrrole-2-carboxamido)-1H-pyrrole-2-carboxamide] | – | 5 to 25 (≈ 3.32 to 16.6 µg/mL) | – | – | > 100 | – | – | 10 to 25 | 70 | 94 | – | 5 to 25 (≈ 3.32 to 16.6 µg/mL) | 25 to 50 | – | – | 10 to 25 | – | – | 5000 to 50000 | – | T. vaginalis Selectivity Indices, Group ([16]; Amides): B (Group B: 0.25 < SI <= 0.5)
CC(C)=CCC/C(C)=C/CNC(=O)c1cc(NC(=O)c2cc(NC(=O)c3ccc(/C=C/c4cnc5ccccc5c4)cc3)cn2C)cn1C [IVa10, N—((E)-3,7-dimethylocta-2,6-dien-1-yl)-1-methyl-4-(1-methyl-4-(4-((E)-2-(quinolin-3-yl)vinyl)benzamido)-1H-pyrrole-2-carboxamido)-1H-pyrrole-2-carboxamide] | – | 5 to 25 (≈ 3.27 to 16.4 µg/mL) | – | – | > 100 | – | > 50 | > 50 | – | – | 25 to 50 (≈ 38.2 to 76.4 µM) | 25 to 100 (≈ 16.4 to 65.5 µg/mL) | > 50 | – | 5 to 25 (≈ 7.64 to 38.2 µM) | 10 to 25 | – | – | 5000 to 50000 | – | –
C/N=C(/CCNC(=O)c1cc(NC(=O)c2cc(NC(=O)c3ccc(/C=C/c4nc5ccccc5s4)cc3)cn2C)cn1C)NC [Ia11, 4-(4-((E)-2-(benzo[d]thiazol-2-yl)vinyl)benzamido)-1-methyl-N-(1-methyl-5-(((Z)-3-(methylamino)-3-(methylimino)propyl)carbamoyl)-1H-pyrrol-3-yl)-1H-pyrrole-2-carboxamide] | – | 5 to 25 (≈ 3.11 to 15.6 µg/mL) | 5 to 25 (≈ 8.03 to 40.1 µM) | – | > 100 | > 50 | < 5 | – | – | – | 5 to 25 (≈ 8.03 to 40.1 µM) | > 100 | – | – | < 5 | – | – | – | – | 8000 to 32000 | MIC99 [18]: 5 to 25 µg/mL (≈ 8.03 to 40.1 µM); MIC99 [19]: 5 to 25 µg/mL (≈ 8.03 to 40.1 µM)
CC/N=C(\N)CCNC(=O)c1cc(NC(=O)c2cc(NC(=O)c3ccc(/C=C/c4ccc5nonc5c4)cc3)cn2C)cn1C [Ia12, N—((Z)-3-amino-3-(ethylimino)propyl)-4-(4-(4-((E)-2-(benzo[c][1,2,5]oxadiazol-5-yl)vinyl)benzamido)-1-methyl-1H-pyrrole-2-carboxamido)-1-methyl-1H-pyrrole-2-carboxamide] | C (Group C: 5 < SI <= 10) | 5 to 25 (≈ 3.04 to 15.2 µg/mL) | – | 100 to 1000 | > 100 | – | 5 to 25 (≈ 8.23 to 41.1 µM) | > 50 | 2 | 2 | > 50 | < 5 | 10 to 25 | 100 to 1000 | 5 to 25 (≈ 8.23 to 41.1 µM) | > 50 | D (D: SI > 10) | 23 | 1000 to 5000 | 8000 to 32000 | T. vaginalis Selectivity Indices, Group ([16]; Alkyl Amidines and NH Pyrroles): B (Group B: 8 < SI <= 16)
CC(C)/N=C(\N)CCNC(=O)c1cc(NC(=O)c2cc(NC(=O)c3ccc(/C=C/c4ccc5nonc5c4)cc3)cn2C)cn1C [Ia13, N—((Z)-3-amino-3-(isopropylimino)propyl)-4-(4-(4-((E)-2-(benzo[c][1,2,5]oxadiazol-5-yl)vinyl)benzamido)-1-methyl-1H-pyrrole-2-carboxamido)-1-methyl-1H-pyrrole-2-carboxamide] | C (Group C: 5 < SI <= 10) | 5 to 25 (≈ 3.11 to 15.5 µg/mL) | – | – | > 100 | – | 5 to 25 (≈ 8.04 to 40.2 µM) | > 50 | 2 | 3 | > 50 | < 5 | 25 to 50 | – | 25 to 50 (≈ 40.2 to 80.4 µM) | > 50 | D (D: SI > 10) | 12 | 1000 to 5000 | 8000 to 32000 | T. vaginalis Selectivity Indices, Group ([16]; Alkyl Amidines and NH Pyrroles): C (Group C: 16 < SI <= 32); T. vaginalis Selectivity Index (SI) [16]: 17
CC(C)NC(=N)CCNC(=O)c1cc(NC(=O)c2cc(NC(=O)c3ccc(/C=C/c4cnc5ccccc5c4)cc3)cn2C)cn1C [Ia21, (E)-N-(3-imino-3-(isopropylamino)propyl)-1-methyl-4-(1-methyl-4-(4-(2-(quinolin-3-yl)vinyl)benzamido)-1H-pyrrole-2-carboxamido)-1H-pyrrole-2-carboxamide] | – | < 5 | 5 to 25 (≈ 7.93 to 39.6 µM) | – | > 100 | 25 to 50 (≈ 39.6 to 79.3 µM) | > 50 | 25 to 50 | 3 | 2 | 5 to 25 (≈ 7.93 to 39.6 µM) | < 5 | > 50 | – | < 5 | 25 to 50 | – | – | < 1000 | – | C. auris Selectivity Indices, Group [5]: B (Group B: 0.4 < SI <= 1); T. vaginalis Selectivity Indices, Group ([16]; Alkyl Amidines and NH Pyrroles): D (Group D: SI > 32); T. vaginalis Selectivity Index (SI) [16]: 41
